# Experiments:
# [1] = molecular target: T1, B1R receptor of the rat (bradykinin 1 receptor) (Rattus norvegicus, UniProt P97583); assay: FLIPR Ca2+ assay (Fluo-4) on CHO K1 cells stably transfected with the B1R gene of the rat; % activation and % inhibition at 10 μM; assay type: cell-based; conditions: CHO K1 rB1R cells, Ca2+ inflow after 100 nM Des-Arg9-bradykinin; for inhibition at 10 µM: CHO-K1, test substance 10 μM, read-out: B1R antagonism, rat [10 μM] % inhibition
# T1 construct: host or cells: CHO K1 cells (rB1R cells)
# T1 sequence (P97583 1-337): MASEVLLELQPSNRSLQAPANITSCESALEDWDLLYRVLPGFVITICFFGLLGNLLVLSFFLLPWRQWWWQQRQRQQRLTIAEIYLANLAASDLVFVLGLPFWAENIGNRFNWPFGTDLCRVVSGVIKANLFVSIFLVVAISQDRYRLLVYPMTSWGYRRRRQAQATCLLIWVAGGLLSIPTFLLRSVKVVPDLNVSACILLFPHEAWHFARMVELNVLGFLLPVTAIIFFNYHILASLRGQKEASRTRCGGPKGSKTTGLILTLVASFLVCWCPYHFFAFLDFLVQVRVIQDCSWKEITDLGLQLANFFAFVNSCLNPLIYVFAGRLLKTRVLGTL
# Procedure, shortened: (§1)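 CHO K1 cells stably expressing human or rat B1R, Fluo-4 loaded, read by FLIPR (peak fluorescence). Compound at 10 µM first gives % activation versus agonist; after 10 min, agonist (human: 0.5 nM Lys-Des-Arg9-bradykinin; rat: 100 nM Des-Arg9-bradykinin) gives % inhibition relative to maximal inhibition.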
# [2] = molecular target: T2, human B1R receptor (bradykinin 1 receptor) (Homo sapiens, UniProt P46663); assay: FLIPR Ca2+ assay (Fluo-4) on CHO K1 cells stably transfected with the human B1R gene; % activation and % inhibition at 10 μM; assay type: cell-based; conditions: CHO K1 hB1R cells, Ca2+ inflow after 0.5 nM Lys-Des-Arg9-bradykinin; for inhibition at 10 µM: CHO-K1, test substance 10 μM, read-out: B1R antagonism, human [10 μM] % inhibition
# T2 construct: host or cells: CHO K1 cells (hB1R cells)
# T2 sequence (P46663 1-353): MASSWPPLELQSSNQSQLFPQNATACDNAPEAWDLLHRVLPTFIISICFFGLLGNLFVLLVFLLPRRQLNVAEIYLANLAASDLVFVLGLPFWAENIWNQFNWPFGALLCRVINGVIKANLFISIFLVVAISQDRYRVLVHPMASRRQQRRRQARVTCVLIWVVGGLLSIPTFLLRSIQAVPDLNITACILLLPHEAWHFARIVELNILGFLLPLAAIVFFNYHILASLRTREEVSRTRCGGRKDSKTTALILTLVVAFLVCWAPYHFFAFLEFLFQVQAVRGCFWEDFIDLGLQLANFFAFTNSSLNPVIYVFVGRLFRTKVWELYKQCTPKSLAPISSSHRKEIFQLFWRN
# Procedure, shortened: as §1
inhibition at 10 µM [1],inhibition at 10 µM [2],"B1R antagonism, rat [10 μM] % inhibition ([1]; test substance 10 μM)","B1R antagonism, human [10 μM] % inhibition ([2]; test substance 10 μM)",SMILES
104%,89.4%,,,"O=C(COCC1CCCCN1S(=O)(=O)c1ccccc1C(F)(F)F)N1CCC(O)(c2ccc(Cl)c(C(F)(F)F)c2)CC1 (centres unmarked) [Example 178, 1-(4-(4-chloro-3-(trifluoromethyl)phenyl)-4-hydroxypiperidin-1-yl)-2-((1-(2-(trifluoromethyl)phenylsulfonyl)piperidin-2-yl)methoxy)ethanone]"
96.6%,104%,,,"COc1cc(C)c(S(=O)(=O)N2CCCC2COCC(=O)N2CCC(O)(c3cccnc3)CC2)c(C)c1 (centres unmarked) [Example 193, 1-(4-hydroxy-4-(pyridin-3-yl)piperidin-1-yl)-2-((1-(4-methoxy-2,6-dimethylphenylsulfonyl)pyrrolidin-2-yl)methoxy)ethanone]"
82.8%,104%,,,"COc1cc(C)c(S(=O)(=O)N2CCC(COCC(=O)N3CCC(O)(c4cccnc4)CC3)C2)c(C)c1 (centres unmarked) [Example 194, 1-(4-hydroxy-4-(pyridin-3-yl)piperidin-1-yl)-2-((1-(4-methoxy-2,6-dimethylphenylsulfonyl)pyrrolidin-3-yl)methoxy)ethanone]"
93.5%,97.8%,,,"COc1cc(C)c(S(=O)(=O)N2Cc3ccccc3CC2COCC(=O)N2CCC(O)(c3cccnc3)CC2)c(C)c1C (centres unmarked) [Example 195, 1-(4-hydroxy-4-(pyridin-3-yl)piperidin-1-yl)-2-((2-(4-methoxy-2,3,6-trimethylphenylsulfonyl)-1,2,3,4-tetrahydroisoquinolin-3-yl)methoxy)ethanone]"
96.5%,103%,,,"O=C(COCC1CCCCN1S(=O)(=O)c1c(Cl)cccc1Cl)N1CCC(O)(c2cccnc2)CC1 (centres unmarked) [Example 196, 2-((1-(2,6-dichlorophenylsulfonyl)piperidin-2-yl)methoxy)-1-(4-hydroxy-4-(pyridin-3-yl)piperidin-1-yl)ethanone]"
96.4%,103%,,,"O=C(COCC1CCCN1S(=O)(=O)c1c(Cl)cccc1Cl)N1CCC(O)(c2cccnc2)CC1 (centres unmarked) [Example 197, 2-((1-(2,6-dichlorophenylsulfonyl)pyrrolidin-2-yl)methoxy)-1-(4-hydroxy-4-(pyridin-3-yl)piperidin-1-yl)ethanone]"
99.2%,106%,,,"Cc1cc(Cl)cc(Cl)c1S(=O)(=O)N(C)CCOCC(=O)N1CCC(O)(c2ccccn2)CC1 [Example 198, 2,4-dichloro-N-(2-(2-(4-hydroxy-4-(pyridin-2-yl)piperidin-1-yl)-2-oxoethoxy)ethyl)-N,6-dimethylphenylsulfonamide]"
98.2%,105%,,,"Cc1cc(S(=O)(=O)N(C)CCOCC(=O)N2CCC(O)(c3cccnc3)CC2)c(Cl)cc1Cl [Example 199, 2,4-dichloro-N-(2-(2-(4-hydroxy-4-(pyridin-3-yl)piperidin-1-yl)-2-oxoethoxy)ethyl)-N,5-dimethylphenylsulfonamide]"
98.1%,29.8%,,,"Cc1cc(C)c(S(=O)(=O)N2Cc3ccccc3CC2COCC(=O)N2CCC(O)(c3ccc(Cl)cc3)CC2)c(C)c1 (centres unmarked) [Example 200, 1-(4-(4-chlorophenyl)-4-hydroxypiperidin-1-yl)-2-((2-(mesitylsulfonyl)-1,2,3,4-tetrahydroisoquinolin-3-yl)methoxy)ethanone]"
80%,14.9%,,,"Cc1cc(C)c(S(=O)(=O)N2Cc3ccccc3CC2COCC(=O)N2CCC(O)(Cc3ccccc3)CC2)c(C)c1 (centres unmarked) [Example 201, 1-(4-benzyl-4-hydroxypiperidin-1-yl)-2-((2-(mesitylsulfonyl)-1,2,3,4-tetrahydroisoquinolin-3-yl)methoxy)ethanone]"
98.5%,99.2%,,,"COc1cc(C)c(S(=O)(=O)N2CCC(COCC(=O)N3CCC(O)(c4ccc(Cl)cc4)CC3)C2)c(C)c1 (centres unmarked) [Example 202, 1-(4-(4-chlorophenyl)-4-hydroxypiperidin-1-yl)-2-((1-(4-methoxy-2,6-dimethylphenylsulfonyl)pyrrolidin-3-yl)methoxy)ethanone]"
85.1%,84.2%,,,"O=C(COCC1CCCN1S(=O)(=O)c1cc(Cl)sc1Cl)N1CCC(O)(c2cccnc2)CC1 (centres unmarked) [Example 203, 2-((1-(2,5-dichlorothiophen-3-ylsulfonyl)pyrrolidin-2-yl)methoxy)-1-(4-hydroxy-4-(pyridin-3-yl)piperidin-1-yl)ethanone]"
98%,104%,,,"O=C(COCC1CCCN1S(=O)(=O)c1c(Cl)cc(Cl)cc1Cl)N1CCC(O)(c2cccnc2)CC1 (centres unmarked) [Example 204, 1-(4-hydroxy-4-(pyridin-3-yl)piperidin-1-yl)-2-((1-(2,4,6-trichlorophenylsulfonyl)pyrrolidin-2-yl)methoxy)ethanone]"
100%,106%,,,"COc1cc(C)c(S(=O)(=O)N(CCOCC(=O)N2CCC(O)(c3ccc(Br)cc3)CC2)CC2CC2)c(C)c1C [Example 205, N-(2-(2-(4-(4-bromophenyl)-4-hydroxypiperidin-1-yl)-2-oxoethoxy)ethyl)-N-(cyclopropylmethyl)-4-methoxy-2,3,6-trimethylphenylsulfonamide]"
100%,105%,,,"COc1cc(C)c(S(=O)(=O)N(CCOCC(=O)N2CCC(O)(c3ccccc3)CC2)CC2CC2)c(C)c1C [Example 206, N-(cyclopropylmethyl)-N-(2-(2-(4-hydroxy-4-phenylpiperidin-1-yl)-2-oxoethoxy)ethyl)-4-methoxy-2,3,6-trimethylphenylsulfonamide]"
99.2%,94.2%,,,"COc1cc(C)c(S(=O)(=O)N(CCOCC(=O)N2CCC(O)(Cc3ccccc3)CC2)CC2CC2)c(C)c1C [Example 207, N-(2-(2-(4-benzyl-4-hydroxypiperidin-1-yl)-2-oxoethoxy)ethyl)-N-(cyclopropylmethyl)-4-methoxy-2,3,6-trimethylphenylsulfonamide]"
100%,106%,,,"COc1cc(C)c(S(=O)(=O)N(CCOCC(=O)N2CCC(O)(c3cccc(C(F)(F)F)c3)CC2)CC2CC2)c(C)c1C [Example 208, N-(cyclopropylmethyl)-N-(2-(2-(4-hydroxy-4-(3-(trifluoromethyl)phenyl)-piperidin-1-yl)-2-oxoethoxy)ethyl)-4-methoxy-2,3,6-trimethylphenylsulfonamide]"
100%,105%,,,"COc1cc(C)c(S(=O)(=O)N(CCOCC(=O)N2CCC(O)(c3ccc(Cl)cc3)CC2)CC(C)C)c(C)c1C [Example 209, N-(2-(2-(4-(4-chlorophenyl)-4-hydroxypiperidin-1-yl)-2-oxoethoxy)ethyl)-N-isobutyl-4-methoxy-2,3,6-trimethylphenylsulfonamide]"
101%,105%,,,"COc1cc(C)c(S(=O)(=O)N(CCOCC(=O)N2CCC(O)(c3ccc(Br)cc3)CC2)CC(C)C)c(C)c1C [Example 210, N-(2-(2-(4-(4-bromophenyl)-4-hydroxypiperidin-1-yl)-2-oxoethoxy)ethyl)-N-isobutyl-4-methoxy-2,3,6-trimethylphenylsulfonamide]"
100%,99.6%,,,"COc1cc(C)c(S(=O)(=O)N(CCOCC(=O)N2CCC(O)(Cc3ccccc3)CC2)CC(C)C)c(C)c1C [Example 211, N-(2-(2-(4-benzyl-4-hydroxypiperidin-1-yl)-2-oxoethoxy)ethyl)-N-isobutyl-4-methoxy-2,3,6-trimethylphenylsulfonamide]"
100%,105%,,,"COc1cc(C)c(S(=O)(=O)N(CCOCC(=O)N2CCC(O)(c3cccc(C(F)(F)F)c3)CC2)CC(C)C)c(C)c1C [Example 212, N-(2-(2-(4-hydroxy-4-(3-(trifluoromethyl)phenyl)piperidin-1-yl)-2-oxoethoxy)ethyl)-N-isobutyl-4-methoxy-2,3,6-trimethylphenylsulfonamide]"
,,101.25%,103.55%,"COc1cc(C)c(S(=O)(=O)N2CCCC2COCC(=O)N2CCC(O)(c3ccc(Cl)c(C(F)(F)F)c3)CC2)c(C)c1 (centres unmarked) [Example 213, 1-(4-(4-chloro-3-(trifluormethyl)phenyl)-4-hydroxypiperidin-1-yl)-2-((1-(4-methoxy-2,6-dimethylphenylsulfonyl)pyrrolidin-2-yl)methoxy)ethanone]"
